According to patent publication US20230226079A1, “METHODS AND COMPOSITIONS FOR TREATMENT OF SOLID TUMORS” (Saint Louis University, priority 2022, published 2023):

Columns and labels:
[1] = Pharmacokinetic study, single dose; format: in vivo, mice; settings: for AUC (% Extrap): C57BI/6 male mice
Protocol: The pharmacokinetic (PK) study of M-I was performed in male C57B1/6 mice. A single dose of M-I (formulated at 2 mg/mL dissolved in 5% DMSO/95% of a 30% w:v Captisol solution) was administered either by intraperitoneal injection (IP group, n=3) or oral gavage (PO group, n=3). After dosing, 20 uL blood samples were collected into heparin pre-coated tubes at 5 min, 15 min, 30 min, 1 h, 2 h, 4 h, 6 h, 8 h and 24 h. Samples were centrifuged, and the plasma collected. M-I concentration was determined using liquid chromatography-mass spectrometry/mass spectrometry (LC-MS/MS) as described earlier (Fuerst et al. (2018) Chem.; 26, 4984-4995).

rat cardiac fibroblasts = settings: cited from earlier work
Ca127 cells = assay: Cytotoxicity assay (Cell Counting Kit-8) in Ca127 cells; format: cell-based; settings: 48 h, treated for 48 h; read-out: IC50 dose, Ca127 cells
Excerpt: Normal oral keratinocytes (NOK) (kindly gifted by Dr. Karl Mugner, Tuffs University, Boston, MA, USA) were maintained in Keratinocyte SFM medium supplemented with EGF and bovine pituitary extract (GIBCO, Life Technologies, Berkeley, MO, USA) and 1% penicillin/ streptomycin. HNC cell line Ca127 was purchased from the ATCC. JHU029 (JHU-29) and JHU022 (JHU-22) cell lines were procured from the Johns Hopkins University (Baltimore, MD, USA). The Ca127 and JHU022 cells were maintained in Dulbecco's Modified Eagle Medium (DMEM), and JHU029 cells were in RPMI1640 (Sigma, St. Louis, Mo., USA) media supplemented with 10% FBS and 1% penicillin/ streptomycin (Sigma-Aldrich, St. Louis, Mo., USA) in a humidified CO2 incubator. The cell lines are routinely tested in the Inventors' laboratory to rule out mycoplasma contamination using a commercial Mycoplasma Detection kit (MycoAlert™, Lonza, Morrisville, N.C., USA). Ca127 cells are tongue origin and JHU022 and JHU029 cells are from larynx origin.
Bitter melon extract (BME) was prepared from the Chinese variety of young bitter melons (raw and green) as described previously (Rajamoorthi et al. (2013) PLoS ONE; 8, e78006). Briefly, BME was prepared by aqueous extraction from whole fruit without seeds using a household juicer at room temperature with subsequent centrifugation at 15000 g at 4 C for 30 min. BME was stored at −80 C for further analysis. […]

CC(C)=CC(O)CC(C)[C@H]1CC[C@@]2(C)[C@@H]3[C@@H](O)C=C4[C@@H](CC[C@H](O)C4(C)C)[C@]3(C=O)CC[C@]12C (stereo partly drawn) [M-I, (3S, 7S, 8S, 9R, 10R, 13R, 14S, 17R) 3,7-dihydroxy-17-(4-hydroxy-6-methylhept-5-en-2-yl)-4,4,13,14-tetramethyl-2,3,7,8,10,11, 12,15, 16,17-decahydro-1H-cyclopenta[a]phenanthrene-9-carbaldehyde]
adverse events after single dose, IP group ([1]; 20 mg/kg IP): No adverse events
adverse events after single dose, oral group ([1]; 20 mg/kg PO, starting four hours post-dose, not resolved by 8 h, normal after twenty-four hours): loose stool
AUC (% Extrap) ([1]; 20 mg/Kg IP): 0.33 ± 0.08%
AUC (% Extrap) ([1]; 20 mg/Kg PO): 6.84 ± 1.5%
high-glucose-induced cell proliferation and collagen synthesis (rat cardiac fibroblasts): inhibitory effects
IC50 (Ca127 cells): < 8 µg/mL
